The source of these data is patent publication US20090054392A1, “NAPHTHYLPYRIMIDINE, NAPHTHYLPYRAZINE AND NAPHTHYLPYRIDAZINE ANALOGS AND THEIR USE AS AGONISTS OF THE WNT-BETA-CATENIN CELLULAR MESSAGING SYSTEM” (Wyeth, priority 2007, published 2009).

The test system of this data set is Dkk1-LRP5-TCF-Luciferase. The data set can be described thus: Functional Dkk1-LRP5-TCF-Luciferase Assay in U2OS Cells. The following applies: for fold induction at 20 µM / fold induction at 2 µM / EC50: Homo sapiens, U2OS; for fold induction at 20 µM: read-out: C = TCF ACTIVITY/DMSO CONTROL Fold induction @ 20.0 uM, 20.0 uM compound; for A = MAX FOLD Induction/DMSO CONTROL: maximum fold induction over DMSO control; for fold induction at 2 µM: read-out: B = TCF ACTIVITY/DMSO CONTROL Fold induction @ 2.0 uM, 2.0 uM compound.

The structures appear in SMILES notation.

Regarding `O=C(N1CCOCC1)N1CC[C@@H](Nc2nccc(-c3ccc4ccccc4c3)n2)C1` [N-[(3R)-1-(morpholin-4-ylcarbonyl)pyrrolidin-3-yl]-4-(2-naphthyl)pyrimidin-2-amine], the fold induction at 20 µM stood at 2.35 and the “A = MAX FOLD Induction/DMSO CONTROL” value was determined as 1.340 fold.
Take `CN(c1nccc(-c2ccc3ccccc3c2)n1)C1CCN(C(=O)C(F)(F)F)CC1` [N-methyl-4-(2-naphthyl)-N-[1-(trifluoroacetyl)piperidin-4-yl]pyrimidin-2-amine]: the fold induction at 2 µM was found to be 1.03 and the fold induction at 20 µM came out at 1.06.
As for `CN(C)C(=O)NCC1CCN(c2nccc(-c3ccc4ccccc4c3)n2)C1` (stereo not drawn) [N,N-dimethyl-N′-({1-[4-(2-naphthyl)pyrimidin-2-yl]pyrrolidin-3-yl}methyl)urea], the fold induction at 2 µM was 0.84 and the fold induction at 20 µM was 1.15.
For `CN(C)S(=O)(=O)N1CC(CNc2nccc(-c3ccc4ccccc4c3)n2)C1` [N,N-dimethyl-3-({[4-(2-naphthyl)pyrimidin-2-yl]amino}methyl)azetidine-1-sulfonamide], the fold induction at 2 µM was found to be 1.47 and the fold induction at 20 µM amounted to 1.14.
With `O=C(N[C@@H]1CCN(c2nccc(-c3ccc4ccccc4c3)n2)C1)c1ccc(Cl)cc1` [4-chloro-N-{(3R)-1-[4-(2-naphthyl)pyrimidin-2-yl]pyrrolidin-3-yl}benzamide], the fold induction at 2 µM is 1.68.
For the compound `Cc1ccc(S(=O)(=O)NCC2CCN(c3nccc(-c4ccc5ccccc5c4)n3)CC2)cc1` [4-methyl-N-({1-[4-(2-naphthyl)pyrimidin-2-yl]piperidin-4-yl}methyl)benzenesulfonamide], the fold induction at 2 µM was determined as 1.07 and the fold induction at 20 µM amounted to 0.41.
`N=C(N)N1CCN(c2nccc(-c3ccc4ccccc4c3)n2)CC1` [4-[4-(2-naphthyl)pyrimidin-2-yl]piperazine-1-carboximidamide]: the fold induction at 2 µM is 1.1 and the fold induction at 20 µM worked out at 0.05.
On to `CCNC(=O)N1CC[C@H](Nc2nccc(-c3ccc4ccccc4c3)n2)C1` [(3S)—N-ethyl-3-{[4-(2-naphthyl)pyrimidin-2-yl]amino}pyrrolidine-1-carboxamide], for which the fold induction at 2 µM stood at 2.49, the fold induction at 20 µM came out at 2.81 and the “A = MAX FOLD Induction/DMSO CONTROL” value is 2.500 fold.
Regarding `CCN(CC)c1nccc(-c2ccc3ccccc3c2)n1` [N,N-diethyl-4-(2-naphthyl)pyrimidin-2-amine], the fold induction at 2 µM is 1.75, the fold induction at 20 µM is 1.68 and the “A = MAX FOLD Induction/DMSO CONTROL” value is listed as 1.260 fold.
By EC50 is commonly meant the midpoint of the concentration-response curve. Take `CN(C)S(=O)(=O)N1CCC(Nc2nccc(-c3ccc4ccccc4c3)n2)CC1` [N,N-dimethyl-4-{[4-(2-naphthyl)pyrimidin-2-yl]amino}piperidine-1-sulfonamide]: it took 12000 nM to reach a half-maximal effect (EC50), the fold induction at 2 µM is 0.97, the fold induction at 20 µM is 1.75 and the “A = MAX FOLD Induction/DMSO CONTROL” value worked out at 3.210 fold.
As to `CCCOc1ccc2cc(-c3ccnc(N4CCC(CN)CC4)n3)ccc2c1` [1-{1-[4-(6-propoxy-2-naphthyl)pyrimidin-2-yl]piperidin-4-yl}methanamine], the fold induction at 2 µM was found to be 1.33.
Regarding `O=CN1CC[C@@H](Nc2nccc(-c3ccc4ccccc4c3)n2)C1` [(3R)-3-{[4-(2-naphthyl)pyrimidin-2-yl]amino}pyrrolidine-1-carbaldehyde], the EC50 was 7170 nM, the fold induction at 2 µM came out at 1.03, the fold induction at 20 µM was 2.69 and the “A = MAX FOLD Induction/DMSO CONTROL” value came out at 5.305 fold.
For the compound `CN(CCCO)[C@@H]1CCN(c2nccc(-c3ccc4ccccc4c3)n2)C1` [3-(methyl{(3R)-1-[4-(2-naphthyl)pyrimidin-2-yl]pyrrolidin-3-yl}amino)propan-1-ol], the fold induction at 20 µM came out at 3.3.
For the compound `NCC1CCN(c2nccc(-c3ccc4ccccc4c3)n2)C1` (stereo not drawn) [1-{1-[4-(2-naphthyl)pyrimidin-2-yl]pyrrolidin-3-yl}methanamine], a half-maximal response (EC50) required 2260 nM, the fold induction at 2 µM stood at 4.53, the fold induction at 20 µM was 0.01 and the “A = MAX FOLD Induction/DMSO CONTROL” value turned out to be 4.063 fold.
For the compound `CC(C)(C)NCC1CCN(c2nccc(-c3ccc4ccccc4c3)n2)C1` (stereo not drawn) [2-methyl-N-({1-[4-(2-naphthyl)pyrimidin-2-yl]pyrrolidin-3-yl}methyl)propan-2-amine], the response was half-maximal at 1370 nM (EC50), the fold induction at 2 µM was found to be 1.99, the fold induction at 20 µM stood at 0.018 and the “A = MAX FOLD Induction/DMSO CONTROL” value is listed as 3.106 fold.
Consider `CC(=O)NCCC1CCN(c2nccc(-c3ccc4ccccc4c3)n2)CC1` [N-(2-{1-[4-(2-naphthyl)pyrimidin-2-yl]piperidin-4-yl}ethyl)acetamide], for which the fold induction at 2 µM was 2.27, the fold induction at 20 µM worked out at 1 and the “A = MAX FOLD Induction/DMSO CONTROL” value amounted to 1.360 fold.
In the case of `c1ccc2cc(-c3ccnc(N4CC[C@@H](N5CCCCC5)C4)n3)ccc2c1` [4-(2-naphthyl)-2-[(3R)-3-piperidin-1-ylpyrrolidin-1-yl]pyrimidine], the fold induction at 2 µM came to 1.29 and the fold induction at 20 µM came out at 0.06.
`CC(C)(C)OC(=O)NC1CCCN(c2nccc(-c3ccc4ccccc4c3)n2)CC1` (stereo not drawn) [tert-butyl {1-[4-(2-naphthyl)pyrimidin-2-yl]azepan-4-yl}carbamate]: the fold induction at 2 µM is 1.34 and the fold induction at 20 µM stood at 0.33.
For the compound `CN1CCN(C(=O)[C@H]2CCCN2c2nccc(-c3ccc4ccccc4c3)n2)CC1` [2-{(2R)-2-[(4-methylpiperazin-1-yl)carbonyl]pyrrolidin-1-yl}-4-(2-naphthyl)pyrimidine], the fold induction at 2 µM turned out to be 1.01, the fold induction at 20 µM came to 2.09 and the “A = MAX FOLD Induction/DMSO CONTROL” value is reported as 1.600 fold.
As for `CCN(CCO)C(=O)[C@@H]1CCCN1c1nccc(-c2ccc3ccccc3c2)n1` [N-ethyl-N-(2-hydroxyethyl)-1-[4-(2-naphthyl)pyrimidin-2-yl]-L-prolinamide], the fold induction at 2 µM was determined as 1.03 and the fold induction at 20 µM turned out to be 1.63.
On to `c1ccc2cc(-c3ccnc(N4CC[C@H](N5CCCCC5)C4)n3)ccc2c1` [4-(2-naphthyl)-2-[(3S)-3-piperidin-1-ylpyrrolidin-1-yl]pyrimidine], for which the fold induction at 2 µM worked out at 1.65.
Consider `O=CNC1CCCN(c2nccc(-c3ccc4ccccc4c3)n2)CC1` (stereo not drawn) [{1-[4-(2-naphthyl)pyrimidin-2-yl]azepan-4-yl}formamide], for which a half-maximal effect (EC50) was put at 2250 nM, the fold induction at 2 µM worked out at 1.5, the fold induction at 20 µM came to 2.05 and the “A = MAX FOLD Induction/DMSO CONTROL” value is recorded as 1.800 fold.
On to `CCNC(=O)NC1CCCN(c2nccc(-c3ccc4ccccc4c3)n2)CC1` (stereo not drawn) [N-ethyl-N′-{1-[4-(2-naphthyl)pyrimidin-2-yl]azepan-4-yl}urea], for which the fold induction at 2 µM amounted to 2.33, the fold induction at 20 µM stood at 2.56 and the “A = MAX FOLD Induction/DMSO CONTROL” value amounted to 1.320 fold.
Regarding `CS(=O)(=O)N[C@@H]1CCN(c2nccc(-c3ccc4ccccc4c3)n2)C1` [N-{(3R)-1-[4-(2-naphthyl)pyrimidin-2-yl]pyrrolidin-3-yl}methanesulfonamide], the fold induction at 2 µM was 1.26 and the fold induction at 20 µM turned out to be 0.82.
Regarding `c1ccc2cc(-c3ccnc(N4CCC(CN5CCCCCC5)CC4)n3)ccc2c1` [1-({1-[4-(2-naphthyl)pyrimidin-2-yl]piperidin-4-yl}methyl)azepane], the fold induction at 2 µM stood at 1.45.
